This is an account of results in ChEMBL document CHEMBL5291721, “A preclinical secondary pharmacology resource illuminates target-adverse drug reaction associations of marketed drugs” (Nat Commun, 2023).

The target in assay [1] is T1, Alpha-1A adrenergic receptor (Homo sapiens, UniProt P35348).
T1 sequence (P35348 whole entry): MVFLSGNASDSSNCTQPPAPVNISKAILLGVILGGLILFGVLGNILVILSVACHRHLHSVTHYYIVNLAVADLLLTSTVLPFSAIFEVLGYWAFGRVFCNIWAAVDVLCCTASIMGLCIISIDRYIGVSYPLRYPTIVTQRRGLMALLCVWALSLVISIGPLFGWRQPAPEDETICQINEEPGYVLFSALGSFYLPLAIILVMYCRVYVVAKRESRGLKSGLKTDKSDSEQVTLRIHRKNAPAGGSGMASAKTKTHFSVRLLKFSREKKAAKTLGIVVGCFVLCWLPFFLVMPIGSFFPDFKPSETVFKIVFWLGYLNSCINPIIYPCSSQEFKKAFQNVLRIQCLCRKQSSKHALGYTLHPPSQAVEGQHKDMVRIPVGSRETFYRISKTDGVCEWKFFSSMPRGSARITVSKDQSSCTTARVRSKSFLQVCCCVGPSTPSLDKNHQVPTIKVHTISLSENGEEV

Assay [2] deals with T2, 5-hydroxytryptamine receptor 1A (Homo sapiens, UniProt P08908).
T2 sequence (P08908 whole entry): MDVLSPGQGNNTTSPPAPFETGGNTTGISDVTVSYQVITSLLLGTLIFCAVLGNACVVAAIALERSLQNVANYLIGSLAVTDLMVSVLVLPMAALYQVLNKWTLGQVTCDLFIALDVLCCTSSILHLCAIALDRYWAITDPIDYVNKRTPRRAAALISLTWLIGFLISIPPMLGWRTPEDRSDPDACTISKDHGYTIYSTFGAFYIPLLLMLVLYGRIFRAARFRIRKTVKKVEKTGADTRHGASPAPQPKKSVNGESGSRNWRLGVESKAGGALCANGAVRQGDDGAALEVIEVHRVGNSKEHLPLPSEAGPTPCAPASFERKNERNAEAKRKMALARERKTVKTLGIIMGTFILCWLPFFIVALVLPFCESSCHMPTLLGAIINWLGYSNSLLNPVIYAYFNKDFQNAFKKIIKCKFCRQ

A further assay concerns the target T3, B1 bradykinin receptor (Homo sapiens, UniProt P46663).
T3 sequence (P46663 whole entry): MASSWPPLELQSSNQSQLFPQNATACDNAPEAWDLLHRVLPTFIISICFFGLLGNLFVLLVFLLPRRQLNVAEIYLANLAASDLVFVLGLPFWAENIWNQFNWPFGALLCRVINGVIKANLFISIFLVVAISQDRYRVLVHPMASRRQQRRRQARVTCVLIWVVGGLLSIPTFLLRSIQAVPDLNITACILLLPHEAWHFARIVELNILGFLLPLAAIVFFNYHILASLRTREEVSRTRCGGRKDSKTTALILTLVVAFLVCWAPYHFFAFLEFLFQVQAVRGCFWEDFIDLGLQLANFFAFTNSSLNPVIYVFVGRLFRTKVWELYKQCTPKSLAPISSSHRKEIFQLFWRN

Assay [3] addresses Voltage-dependent N-type calcium channel subunit alpha-1B (Rattus norvegicus, UniProt Q02294). Format: functional.
Assay [4] deals with T4, Gastric inhibitory polypeptide receptor (Homo sapiens, UniProt P48546).
T4 sequence (P48546 whole entry): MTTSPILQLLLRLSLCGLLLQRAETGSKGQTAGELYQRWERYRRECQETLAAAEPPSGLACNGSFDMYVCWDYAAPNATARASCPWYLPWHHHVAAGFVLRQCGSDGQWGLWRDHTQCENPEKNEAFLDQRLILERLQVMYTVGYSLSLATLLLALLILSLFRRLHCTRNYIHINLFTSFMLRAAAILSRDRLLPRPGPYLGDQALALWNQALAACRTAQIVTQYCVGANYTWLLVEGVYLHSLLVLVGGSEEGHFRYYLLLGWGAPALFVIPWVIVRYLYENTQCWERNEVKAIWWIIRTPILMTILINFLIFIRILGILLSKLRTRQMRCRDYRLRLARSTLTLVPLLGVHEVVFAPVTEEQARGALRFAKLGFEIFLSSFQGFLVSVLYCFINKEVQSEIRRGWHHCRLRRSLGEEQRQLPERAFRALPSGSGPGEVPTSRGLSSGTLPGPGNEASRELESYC

Assay [5] concerns the target T5, Endothelin receptor type B (Homo sapiens, UniProt P24530).
T5 sequence (P24530 whole entry): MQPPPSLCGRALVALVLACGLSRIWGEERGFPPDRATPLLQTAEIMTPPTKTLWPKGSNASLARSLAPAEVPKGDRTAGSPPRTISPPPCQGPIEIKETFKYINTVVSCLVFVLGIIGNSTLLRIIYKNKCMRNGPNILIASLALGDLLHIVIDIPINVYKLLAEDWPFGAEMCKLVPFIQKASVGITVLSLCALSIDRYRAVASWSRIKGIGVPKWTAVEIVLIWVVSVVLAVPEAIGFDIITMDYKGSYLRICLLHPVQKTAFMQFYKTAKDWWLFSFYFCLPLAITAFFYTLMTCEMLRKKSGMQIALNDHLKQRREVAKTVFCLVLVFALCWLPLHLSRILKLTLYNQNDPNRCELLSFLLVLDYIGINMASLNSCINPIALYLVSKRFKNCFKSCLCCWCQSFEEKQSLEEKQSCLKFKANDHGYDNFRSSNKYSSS
Also: assay procedure not described here.

Sequence of Voltage-dependent N-type calcium channel subunit alpha-1B (Q02294 whole entry): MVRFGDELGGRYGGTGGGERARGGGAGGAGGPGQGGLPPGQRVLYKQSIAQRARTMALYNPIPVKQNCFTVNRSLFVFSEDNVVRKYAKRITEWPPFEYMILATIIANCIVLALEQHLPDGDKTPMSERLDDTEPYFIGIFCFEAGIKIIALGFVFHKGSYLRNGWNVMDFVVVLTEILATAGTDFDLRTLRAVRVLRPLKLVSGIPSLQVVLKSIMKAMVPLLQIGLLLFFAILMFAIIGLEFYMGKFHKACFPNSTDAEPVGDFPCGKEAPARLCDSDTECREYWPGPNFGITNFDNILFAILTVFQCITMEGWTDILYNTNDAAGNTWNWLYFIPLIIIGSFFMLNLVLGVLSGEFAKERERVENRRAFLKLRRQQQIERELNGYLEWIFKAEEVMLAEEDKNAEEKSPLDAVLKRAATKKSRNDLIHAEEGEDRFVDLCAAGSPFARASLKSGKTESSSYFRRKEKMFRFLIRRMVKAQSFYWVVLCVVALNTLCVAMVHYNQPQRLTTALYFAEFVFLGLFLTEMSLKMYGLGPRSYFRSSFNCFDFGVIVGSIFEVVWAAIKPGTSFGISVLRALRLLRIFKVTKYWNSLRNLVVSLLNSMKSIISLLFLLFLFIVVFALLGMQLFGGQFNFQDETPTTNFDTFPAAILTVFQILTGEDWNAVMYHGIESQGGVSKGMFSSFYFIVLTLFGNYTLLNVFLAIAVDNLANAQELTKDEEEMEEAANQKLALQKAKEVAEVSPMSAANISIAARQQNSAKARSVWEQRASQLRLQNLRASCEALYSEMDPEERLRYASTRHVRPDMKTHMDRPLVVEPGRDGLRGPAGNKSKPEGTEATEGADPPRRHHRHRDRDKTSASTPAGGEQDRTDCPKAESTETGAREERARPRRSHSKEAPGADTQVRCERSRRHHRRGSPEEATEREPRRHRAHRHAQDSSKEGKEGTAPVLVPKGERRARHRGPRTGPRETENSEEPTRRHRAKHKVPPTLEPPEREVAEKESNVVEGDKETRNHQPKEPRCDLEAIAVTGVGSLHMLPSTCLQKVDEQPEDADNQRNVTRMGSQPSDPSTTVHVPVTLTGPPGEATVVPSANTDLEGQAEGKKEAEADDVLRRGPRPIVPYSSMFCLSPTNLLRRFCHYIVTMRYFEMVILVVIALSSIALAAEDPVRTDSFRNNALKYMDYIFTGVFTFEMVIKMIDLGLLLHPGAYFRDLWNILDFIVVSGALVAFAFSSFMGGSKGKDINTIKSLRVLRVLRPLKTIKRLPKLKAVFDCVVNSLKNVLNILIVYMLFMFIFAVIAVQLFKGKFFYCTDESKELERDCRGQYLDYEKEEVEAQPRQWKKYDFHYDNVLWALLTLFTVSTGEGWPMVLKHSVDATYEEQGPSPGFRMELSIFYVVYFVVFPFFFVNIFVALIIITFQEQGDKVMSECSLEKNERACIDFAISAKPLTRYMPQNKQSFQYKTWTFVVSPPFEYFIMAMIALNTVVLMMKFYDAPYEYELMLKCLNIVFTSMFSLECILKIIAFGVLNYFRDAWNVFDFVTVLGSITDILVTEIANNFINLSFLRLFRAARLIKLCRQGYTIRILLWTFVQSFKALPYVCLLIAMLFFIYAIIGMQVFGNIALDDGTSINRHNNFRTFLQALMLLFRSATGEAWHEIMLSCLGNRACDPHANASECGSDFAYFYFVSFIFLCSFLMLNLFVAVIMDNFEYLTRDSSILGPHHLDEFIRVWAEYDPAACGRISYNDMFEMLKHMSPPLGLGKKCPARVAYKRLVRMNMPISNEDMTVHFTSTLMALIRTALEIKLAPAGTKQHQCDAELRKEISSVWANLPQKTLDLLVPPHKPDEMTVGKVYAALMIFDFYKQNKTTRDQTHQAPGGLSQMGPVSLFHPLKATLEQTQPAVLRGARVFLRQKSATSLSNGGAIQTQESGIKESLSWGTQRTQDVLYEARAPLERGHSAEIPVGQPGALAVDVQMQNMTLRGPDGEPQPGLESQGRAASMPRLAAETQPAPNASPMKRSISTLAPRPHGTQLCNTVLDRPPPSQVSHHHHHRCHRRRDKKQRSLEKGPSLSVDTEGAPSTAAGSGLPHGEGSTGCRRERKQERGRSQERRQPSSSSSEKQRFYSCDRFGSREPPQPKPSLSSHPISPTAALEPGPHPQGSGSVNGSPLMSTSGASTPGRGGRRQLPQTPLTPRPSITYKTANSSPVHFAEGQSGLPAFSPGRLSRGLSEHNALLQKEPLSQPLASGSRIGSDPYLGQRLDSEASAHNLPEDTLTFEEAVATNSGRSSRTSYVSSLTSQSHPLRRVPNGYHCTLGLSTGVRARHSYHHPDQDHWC

For the compound `O=C(CCCCC(=O)Nc1c(I)cc(I)c(C(=O)O)c1I)Nc1c(I)cc(I)c(C(=O)O)c1I` [IODIPAMIDE], in assay [1], the AC50 is above 30 µM.
The same measure, in the same setting: with `CN1C(=O)CC(=O)N(c2ccccc2)c2cc(Cl)ccc21` [CLOBAZAM] the figure was above 10 µM; with `COc1ccccc1OCC(O)COC(N)=O` (stereo not drawn) [METHOCARBAMOL], above 10 µM; with `CC(=O)O[C@@]12CO[C@@H]1C[C@H](O)[C@@]1(C)C(=O)[C@H](O)C3=C(C)[C@@H](OC(=O)[C@H](O)[C@@H](NC(=O)OC(C)(C)C)c4ccccc4)C[C@@](O)([C@@H](OC(=O)c4ccccc4)[C@H]21)C3(C)C` [DOCETAXEL ANHYDROUS], above 30 µM.
Turning to `CN1C(=O)CC(c2ccccc2)C1=O` (stereo not drawn) [PHENSUXIMIDE], the AC50 in assay [1] is above 10 µM.
The same measure, in the same setting: for `CCC1(C2=CCCCCC2)C(=O)NC(=O)NC1=O` [HEPTABARBITAL] the value was above 10 µM.
On to `NC(CO)C(=O)NNCc1ccc(O)c(O)c1O` (stereo not drawn) [BENSERAZIDE], for which the AC50 in assay [2] is above 10 µM; on B1 bradykinin receptor it was above 30 µM; in assay [3] it was above 10 µM; in assay [4], above 30 µM; in assay [1], above 10 µM; in assay [5] it was above 30 µM.
As to `CCN1CCC[C@H]1CNC(=O)c1cc(S(N)(=O)=O)ccc1OC` [LEVOSULPIRIDE], the concentration at half-maximal activity (AC50) in assay [2] was above 10 µM; in assay [1], 16 µM.
Compound `CCCCCCCCOc1ccccc1C(=O)Nc1ccc(C(=O)OCC[N+](C)(CC)CC)cc1` [OTILONIUM BROMIDE] returned an AC50 in assay [2] above 30 µM.
For the compound `CCN(CC)CCOC(=O)c1ccc(N)cc1` [PROCAINE], the AC50 in assay [2], in assay [3] and in assay [1] was above 10 µM in each case.
In turn, `O=C1NCCN1CCN1CCC(c2cn(-c3ccc(F)cc3)c3ccc(Cl)cc23)CC1` [SERTINDOLE] yielded an AC50 in assay [1] of 0.017 µM.
On the same count and under the same terms, with `CN[C@@H]1[C@H](O)[C@H](NC)[C@H]2O[C@@]3(O)C(=O)C[C@@H](C)O[C@H]3O[C@@H]2[C@H]1O` [SPECTINOMYCIN] the figure was above 10 µM; with `CC(=O)NS(=O)(=O)c1ccc(N)cc1` [SULFACETAMIDE], above 10 µM; with `CN1CC(=O)N2[C@H](c3ccc4c(c3)OCO4)c3[nH]c4ccccc4c3C[C@@H]2C1=O`, above 10 µM.
As to `COc1c(N2CCNC(C)C2)c(F)cc2c(=O)c(C(=O)O)cn(C3CC3)c12` (stereo not drawn) [GATIFLOXACIN], the AC50 in assay [1] is above 30 µM.
Same read-out and setting: for `CN1CCCN=C1COC(=O)C(O)(c1ccccc1)C1CCCCC1` (stereo not drawn) [OXYPHENCYCLIMINE] the value was above 10 µM; for `CC(C)[N+](C)(CCC(C(N)=O)(c1ccccc1)c1ccccc1)C(C)C` [ISOPROPAMIDE], above 10 µM.
Regarding `CC(Cc1ccccc1)NCCC(c1ccccc1)c1ccccc1` (stereo not drawn) [PRENYLAMINE], the AC50 in assay [2] was determined as 0.957 µM; in assay [1], 0.877 µM.
For `CN1CCN(C(=O)OC2c3nccnc3C(=O)N2c2ccc(Cl)cn2)CC1` (stereo not drawn) [ZOPICLONE], the AC50 in assay [2] is above 10 µM; at B1 bradykinin receptor, above 30 µM; in assay [3], above 10 µM; in assay [4] it was above 30 µM; in assay [1] it was above 10 µM; in assay [5], above 30 µM.
As to `COc1ccc2cccc(CCNC(C)=O)c2c1` [AGOMELATINE], the AC50 in assay [2] is above 10 µM; at B1 bradykinin receptor, above 30 µM; in assay [3], above 10 µM; in assay [4], above 30 µM; in assay [1], above 10 µM; in assay [5], above 30 µM.
On to `CC(C)c1c(C(=O)Nc2ccccc2)c(-c2ccccc2)c(-c2ccc(F)cc2)n1CC[C@@H](O)C[C@@H](O)CC(=O)O` [ATORVASTATIN], for which the half-maximal activity concentration (AC50) was above 10 µM in assay [2]; above 30 µM on B1 bradykinin receptor; above 10 µM in assay [3]; above 30 µM in assay [4]; above 10 µM in assay [1]; above 30 µM in assay [5].
Regarding `CN(C)C(=O)OC1N=C(c2ccccc2)c2cc(Cl)ccc2N(C)C1=O` (stereo not drawn) [CAMAZEPAM], the AC50 was above 10 µM in assay [2]; above 30 µM on B1 bradykinin receptor; above 10 µM in assay [3]; above 30 µM in assay [4]; above 10 µM in assay [1]; above 30 µM in assay [5].
`CN1CCC2=C(C1)C(c1ccccc1)c1ccccc12` (stereo not drawn) [PHENINDAMINE] yielded an AC50 in assay [1] above 10 µM.
Take `CC(C)C(=O)OCC(=O)[C@@]12O[C@H](C3CCCCC3)O[C@@H]1C[C@H]1[C@@H]3CCC4=CC(=O)C=C[C@]4(C)[C@H]3[C@@H](O)C[C@@]12C` [CICLESONIDE]: the AC50 in assay [1] was above 10 µM.
As for `C#CC1(OC(N)=O)CCCCC1` [ETHINAMATE], the concentration at half-maximal activity (AC50) in assay [1] was above 10 µM.
On to `CC1=CC(=O)c2ccccc2C1=O` [MENADIONE], for which, in assay [1], the AC50 is above 30 µM.
As to `Cc1cc(-c2ccccc2)nnc1NCCN1CCOCC1` [MINAPRINE], the AC50 is above 10 µM in assay [2]; above 30 µM on B1 bradykinin receptor; above 10 µM in assay [3]; above 30 µM in assay [4]; above 10 µM in assay [1]; above 30 µM in assay [5].
Turning to `Cc1c(C(=O)Nc2ccc(N3C[C@@H](C)O[C@@H](C)C3)nc2)cccc1-c1ccc(OC(F)(F)F)cc1` [SONIDEGIB], the AC50 in assay [2] was above 10 µM; on B1 bradykinin receptor, above 30 µM; in assay [3], above 10 µM; in assay [4], above 30 µM; in assay [5] it was above 30 µM.
Take `C1COC(NC(C2CC2)C2CC2)=N1` [RILMENIDINE]: the half-maximal activity concentration (AC50) in assay [2] turned out to be 20.5 µM; in assay [1], 4.39 µM.
`CC(=O)OCC(=O)[C@@]12OC3(CCCC3)O[C@@H]1C[C@H]1[C@@H]3CCC4=CC(=O)C=C[C@]4(C)[C@@]3(F)[C@@H](O)C[C@@]12C` [AMCINONIDE]: the AC50 in assay [1] was above 10 µM.
Still for that read-out and setting: for `C#CCN[C@@H]1CCc2ccccc21` [RASAGILINE] the value was 20 µM; for `COC(=O)C1=C(C)NC(C)=C(C(=O)OC(C)C)C1c1cccc2nonc12` (stereo not drawn) [ISRADIPINE], above 30 µM.
In the case of `Cc1cc2c(OCC(CNC(C)(C)C)OC(=O)c3ccccc3)cccc2[nH]1` (stereo not drawn) [BOPINDOLOL], in assay [2], the AC50 came to 0.0522 µM.
Take `CCCCOc1cc(C(=O)NCCN(CC)CC)c2ccccc2n1` [DIBUCAINE]: the AC50 in assay [1] is above 10 µM.
As for `CCNC(C)Cc1cccc(C(F)(F)F)c1` (stereo not drawn) [FENFLURAMINE], the AC50 at B1 bradykinin receptor was above 30 µM; in assay [3], above 10 µM; in assay [4] it was above 30 µM; in assay [5], above 30 µM.
For the compound `C#CCN(C)[C@H](C)Cc1ccccc1` [SELEGILINE], in assay [1], the activity was half-maximal at 12.7 µM (AC50).
Regarding `CN1CCc2cccc3c2[C@H]1Cc1ccc(O)c(O)c1-3` [APOMORPHINE], the concentration at half-maximal activity (AC50) at B1 bradykinin receptor is above 30 µM; in assay [3], above 10 µM; in assay [4], above 30 µM; in assay [1], above 10 µM; in assay [5], above 30 µM.

The term AC50 denotes the concentration giving half of the maximal activity seen.
